Source: patent US9115092B2, “Substituted quinazoline and pyrido-pyrimidine derivatives” (Asana Biosciences, LLC, priority 2010, dated 2015)

Assays:
[1] = target: T1, PI3Kα (wild-type), P110/P85α (Homo sapiens, UniProt P42336); test: PI3 Kinase TR-FRET assay, PI3Kα (wild-type); format: biochemical
T1 construct: made in house; host or cells: SF9 insect cells
Experimental: The ability of compounds of the invention to inhibit PI3K activity was determined in a homogeneous TR-FRET assay using a PI3K assay kit (Millipore, USA; cat #33-016) according to manufacturer's instructions. PI3-Kinases (isoforms α, β, γ and δ) catalyze the phosphorylation of phosphatidylinositol, PIP2 to PIP3 in the presence of ATP and Mg^2+. The PIP3 product is detected by displacement of biotin-PIP3 from an energy transfer complex consisting of Europium labeled anti-GST monoclonal antibody, a GST-tagged PH domain, biotinylated PIP3 and Streptavidin-APC. Excitation of Europium in the complex results in an energy transfer to the APC and a fluorescence emission at 665 nm. The PIP3 product displaces biotin-PIP3 from the complex resulting in a loss of energy transfer and thus a decrease in signal.
To test for the ability of compounds to inhibit the activity of PI3Kα (wild-type), exemplary compounds of formula (I) were dissolved in DMSO and directly distributed into 384-well plates at a volume of 0.5 μL. 14.5 μL of P110/P85α/PIP2 mixture in buffer (obtained from the Millipore kit) containing MgCl2 (40 mM) and DTT (5 mM) was added to compound wells and incubated for 60 min at room temperature. P110/P85α was expressed in SF9 insect cells and purified nickel column extraction. Five ng of wild-type P110/P85α was used in the assay. The kinase reaction was started by the addition of ATP. The assay concentrations of both PIP2 and ATP were 10 μM. The reaction mixture was incubated for 30 min at room temperature and was terminated by the addition of stop mix and detection mix. Fluorescence was measured at 615 and 665 nm upon excitation at 340 nm in a Victor™ V5 fluorometer (Perkin Elmer, USA). The fluorescence emission ratio at 665 to 615 nm, proportional to the kinase activity, was plotted against the compound concentration to generate dose-response curves and IC50 values were determined using GraphPad Prism® 5 software.

[2] = target: T2, mTOR kinase (Homo sapiens, UniProt P42345); test: mTOR kinase TR-FRET assay; format: biochemical; conditions: read-out: mTO R
T2 construct: purchased Millipore, USA
Experimental: Compound inhibition for mTOR kinase was determined in a homogeneous TR-FRET assay using the Lance® ULight-p70 S6K (Thr 389) peptide (obtained from Perkin-Elmer). The ULight™-labeled synthetic peptide contains the amino acid residues surrounding Thr389 of human p70 S6K. The ULight-p70 S6K peptide is phosphorylated at Thr389 by mTOR. Phosphorylation motif: LGFTYVAP as substrate.
The compound dilution was carried out in 100% DMSO followed by a buffer dilution. The reaction buffer was HEPES (50 mM pH 7.5), EGTA (1 mM), MnCl2 (3 mM). Test compounds at various concentrations were pre-incubated with mTOR (Millipore, USA; 5 ng) for 60 min, and then the Lance® ULight-p70 S6K (Thr 389) peptide (50 nM) was added along with ATP (20 μM). After incubating the reaction mixture for 60 min at room temperature, the kinase reaction was terminated by the addition of EDTA (10 mM) followed by the addition of detection mix, i.e., 1 nM Eu-labeled anti-phospho-substrate antibody (Perkin Elmer, USA). The fluorescence emission at […] was measured upon excitation at 340 nm. IC50 values were subsequently determined using a sigmoidal dose-response curve (variable slope) in GraphPad Prism® 5 software.
Compounds of formula (I) caused inhibition of mTOR kinase activity as determined by this assay.

T1 sequence (P42336 whole entry): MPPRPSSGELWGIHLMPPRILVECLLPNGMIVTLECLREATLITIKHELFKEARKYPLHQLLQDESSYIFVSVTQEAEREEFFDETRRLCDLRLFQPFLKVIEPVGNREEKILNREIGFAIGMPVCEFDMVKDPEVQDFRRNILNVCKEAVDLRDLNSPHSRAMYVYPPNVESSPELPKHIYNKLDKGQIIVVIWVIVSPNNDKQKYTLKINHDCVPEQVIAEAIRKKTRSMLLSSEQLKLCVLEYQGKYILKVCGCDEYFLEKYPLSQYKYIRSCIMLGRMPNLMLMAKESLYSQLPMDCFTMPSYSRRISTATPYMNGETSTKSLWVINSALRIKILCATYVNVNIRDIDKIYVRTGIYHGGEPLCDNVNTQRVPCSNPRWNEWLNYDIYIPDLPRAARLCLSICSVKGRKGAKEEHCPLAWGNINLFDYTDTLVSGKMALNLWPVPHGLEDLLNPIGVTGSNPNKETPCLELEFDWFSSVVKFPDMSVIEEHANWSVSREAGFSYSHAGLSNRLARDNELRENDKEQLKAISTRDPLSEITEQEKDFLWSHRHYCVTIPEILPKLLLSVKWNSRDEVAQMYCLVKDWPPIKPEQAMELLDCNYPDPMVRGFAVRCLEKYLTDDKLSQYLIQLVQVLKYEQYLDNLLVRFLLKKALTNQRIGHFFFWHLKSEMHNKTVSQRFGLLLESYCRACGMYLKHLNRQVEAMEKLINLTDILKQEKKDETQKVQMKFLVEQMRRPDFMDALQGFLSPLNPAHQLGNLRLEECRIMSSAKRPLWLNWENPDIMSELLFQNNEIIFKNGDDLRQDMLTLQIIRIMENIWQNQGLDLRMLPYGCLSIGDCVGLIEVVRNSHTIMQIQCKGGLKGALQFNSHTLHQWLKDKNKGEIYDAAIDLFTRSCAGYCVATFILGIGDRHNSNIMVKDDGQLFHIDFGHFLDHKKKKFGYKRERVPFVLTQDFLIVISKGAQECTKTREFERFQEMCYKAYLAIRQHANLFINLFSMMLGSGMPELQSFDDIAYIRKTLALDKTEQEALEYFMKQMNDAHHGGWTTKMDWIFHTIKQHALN
T1 sequence (P27986 whole entry partner): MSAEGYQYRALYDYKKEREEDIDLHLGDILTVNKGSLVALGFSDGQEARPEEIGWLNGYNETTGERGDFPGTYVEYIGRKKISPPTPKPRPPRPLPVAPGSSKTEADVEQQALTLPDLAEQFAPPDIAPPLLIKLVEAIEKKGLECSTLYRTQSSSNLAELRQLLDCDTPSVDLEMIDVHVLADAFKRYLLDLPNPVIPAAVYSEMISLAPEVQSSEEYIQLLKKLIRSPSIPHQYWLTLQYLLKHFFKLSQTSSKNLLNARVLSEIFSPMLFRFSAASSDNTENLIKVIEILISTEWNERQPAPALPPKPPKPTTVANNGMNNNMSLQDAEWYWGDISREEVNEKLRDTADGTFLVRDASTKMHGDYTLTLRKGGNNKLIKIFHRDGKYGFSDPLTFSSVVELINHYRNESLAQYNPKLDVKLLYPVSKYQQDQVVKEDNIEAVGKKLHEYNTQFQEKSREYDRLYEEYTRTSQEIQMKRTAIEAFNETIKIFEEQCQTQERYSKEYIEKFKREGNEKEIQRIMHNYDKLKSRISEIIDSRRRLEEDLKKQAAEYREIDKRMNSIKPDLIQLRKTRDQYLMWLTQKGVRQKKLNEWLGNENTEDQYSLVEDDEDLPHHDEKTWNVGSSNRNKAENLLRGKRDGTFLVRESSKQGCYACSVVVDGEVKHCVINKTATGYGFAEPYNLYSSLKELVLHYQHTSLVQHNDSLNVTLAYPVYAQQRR

IC50 [1] [nM]	IC50 [2] [nM]	Compound
50 to 200	< 50	CN(C)C(=O)c1ccc(NC(=O)Nc2ccc(-c3nc(N4CCOCC4)c4cc(F)c(-c5cnn(C)c5)cc4n3)cc2F)cc1 [Example 108, 4-(3-(2-fluoro-4-(6-fluoro-7-(1-methyl-1H-pyrazol-4-yl)-4-morpholino-quinazolin-2-yl)phenyl)ureidodimethyl-benzamide)-N,N-dimethyl-benzamide]
50 to 200	50 to 200	CN(C)C(=O)c1ccc(NC(=O)Nc2ccc(-c3nc(N4CCOCC4)c4cc(F)c(-c5cccnc5)cc4n3)cc2F)cc1 [Example 109, 4-(3-(2-fluoro-4-(6-fluoro-4-morpholino-7-(pyridin-3-yl)quinazolin-2-yl)phenyl)ureido)-N,N-dimethyl-benzamide]
201 to 10000	< 50	CN(C)C(=O)c1ccc(NC(=O)Nc2ccc(-c3nc(N4CCOCC4)c4ccc(-c5cnc(N)nc5)cc4n3)cc2F)cc1 [Example 110, 4-(3-(4-(7-(2-aminopyrimidin-5-yl)-4-morpholino-quinazolin-2-yl)-2-fluorophenyl)ureido)-N,N-dimethyl-benzamide]
50 to 200	50 to 200	CN(C)C(=O)c1ccc(NC(=O)Nc2ccc(-c3nc(N4CCOCC4)c4ccc(-c5ccco5)cc4n3)cc2F)cc1 [Example 114, 4-(3-(2-fluoro-4-(7-(furan-2-yl)-4-morpholino-quinazolin-2-yl)phenyl)ureido)-N,N-dimethyl-benzamide]
< 50	201 to 10000	COc1ncc(-c2ccc3c(N4CCOCC4)nc(-c4ccc(NC(=O)Nc5ccc(C(=O)N(C)C)cc5)nc4)nc3c2)cn1 [Example 119, 4-(3-(5-(7-(2-methoxypyrimidin-5-yl)-4-morpholino-quinazolin-2-yl)pyridin-2-yl)ureido)-N,N-dimethyl-benzamide]
50 to 200	50 to 200	Cc1ccc(-c2ccc3c(N4CCOCC4)nc(-c4ccc(NC(=O)Nc5ccc(C(=O)N(C)C)nc5)c(F)c4)nc3c2)o1 [Example 122, 5-(3-(2-fluoro-4-(7-(5-methylfuran-2-yl)-4-morpholino-quinazolin-2-yl)phenyl)ureido)-N,N-dimethylpicolinamide]
201 to 10000	50 to 200	CC1CN(c2nc(-c3ccc(NC(=O)Nc4ccc(C(=O)N(C)C)cc4)cc3)nc3cc(-c4cnn(C)c4)cnc23)CC(C)O1 (stereo not drawn) [Example 125, 4-(3-(4-(4-(2,6-dimethylmorpholino)-7-(1-methyl-1H-pyrazol-4-yl)pyrido[3,2-d]pyrimidin-2-yl)phenyl)ureido)-N,N-dimethyl-benzamide]
201 to 10000	201 to 10000	CC1CN(c2nc(-c3ccc(NC(=O)Nc4ccc(C(=O)N(C)C)cc4)c(F)c3)nc3cc(-c4cnn(C)c4)cnc23)CC(C)O1 (stereo not drawn) [Example 126, 4-(3-(4-(4-(2,6-dimethylmorpholino)-7-(1-methyl-1H-pyrazol-4-yl)pyrido[3,2-d]pyrimidin-2-yl)-2-fluorophenyl)ureido)-N,N-dimethyl-benzamide]
201 to 10000	201 to 10000	Cc1ccc(-c2ccc3c(N4CCOCC4)nc(-c4ccc(NC(=O)Nc5ccc(C(=O)N(C)C)cc5F)cc4)nc3c2)o1 [Example 136, 3-fluoro-N,N-dimethyl-4-(3-(4-(7-(5-methylfuran-2-yl)-4-morpholino-quinazolin-2-yl)phenyl)ureido)-benzamide]
201 to 10000	201 to 10000	CN(C)C(=O)c1ccc(NC(=O)Nc2ccc(-c3nc(N4CCOCC4)c4ccc(-c5cncnc5)cc4n3)cc2F)c(F)c1 [Example 139, 3-fluoro-4-(3-(2-fluoro-4-(4-morpholino-7-(pyrimidin-5-yl)quinazolin-2-yl)phenyl)ureido)-N,N-dimethyl-benzamide]
< 50	201 to 10000	CN(C)C(=O)c1ccc(NC(=O)Nc2ccc(-c3nc(N4CCOCC4)c4ccc(-c5cncnc5)cc4n3)cn2)c(F)c1 [Example 140, 3-fluoro-N,N-dimethyl-4-(3-(5-(4-morpholino-7-(pyrimidin-5-yl)quinazolin-2-yl)pyridin-2-yl)ureido)-benzamide]
201 to 10000	50 to 200	CN(C)C(=O)c1ccc(NC(=O)Nc2ccc(-c3nc(N4CCOCC4)c4ncc(-c5cnn(C)c5)cc4n3)cc2F)c(F)c1 [Example 141, 3-fluoro-4-(3-(2-fluoro-4-(7-(1-methyl-1H-pyrazol-4-yl)-4-morpholino-pyrido[3,2-d]pyrimidin-2-yl)phenyl)ureido)-N,N-dimethyl-benzamide]
50 to 200	50 to 200	Cc1ccc(-c2ccc3c(N4CCOC(C)C4)nc(-c4ccc(NC(=O)Nc5ccc(C(=O)N(C)C)cc5)cc4)nc3c2)o1 (stereo not drawn) [Example 142, N,N-dimethyl-4-(3-(4-(7-(5-methylfuran-2-yl)-4-(2-methylmorpholino)quinazolin-2-yl)phenyl)ureido)-benzamide]
50 to 200	< 50	CC1CN(c2nc(-c3ccc(NC(=O)Nc4ccc(C(=O)N(C)C)cc4)c(F)c3)nc3cc(-c4cncnc4)ccc23)CCO1 (stereo not drawn) [Example 144, 4-(3-(2-fluoro-4-(4-(2-methylmorpholino)-7-(pyrimidin-5-yl)quinazolin-2-yl)phenyl)ureido)-N,N-dimethyl-benzamide]
< 50	< 50	CN(C)C(=O)c1ccc(NC(=O)Nc2ccc(-c3nc(N4CCOCC4)c4ncc(-c5cccnc5F)cc4n3)cc2)c(F)c1 [Example 145, 3-fluoro-4-(3-(4-(7-(2-fluoropyridin-3-yl)-4-morpholino-pyrido[3,2-d]pyrimidin-2-yl)phenyl)ureido)-N,N-dimethyl-benzamide]
< 50	< 50	CC1CN(c2nc(-c3ccc(NC(=O)Nc4ccc(C(=O)N(C)C)cc4)cc3)nc3cc(-c4cnn(C)c4)cnc23)CCO1 (stereo not drawn) [Example 148, N,N-dimethyl-4-(3-(4-(7-(1-methyl-1H-pyrazol-4-yl)-4-(2-methylmorpholino)pyrido[3,2-d]pyrimidin-2-yl)phenyl)ureido)-benzamide]
50 to 200	50 to 200	CN(C)C(=O)c1ccc(NC(=O)Nc2ccc(-c3nc(N4CCOCC4)c4cc(F)c(-c5ccco5)cc4n3)cc2)cc1 [Example 149, 4-(3-(4-(6-fluoro-7-(furan-2-yl)-4-morpholino-quinazolin-2-yl)phenyl)ureido)-N,N-dimethyl-benzamide]
< 50	< 50	CN(C)C(=O)c1ccc(NC(=O)Nc2ccc(-c3nc(N4CCOCC4)c4ccc(-c5cnc(O)nc5)cc4n3)cc2)cc1 [Example 150, 4-(3-(4-(7-(2-hydroxypyrimidin-5-yl)-4-morpholino-quinazolin-2-yl)phenyl)ureido)-N,N-dimethyl-benzamide]
50 to 200	50 to 200	COc1ccc(-c2ccc3c(N4CCOCC4)nc(-c4ccc(NC(=O)Nc5ccc(C(=O)N(C)C)cc5)c(F)c4)nc3c2)cn1 [Example 151, 4-(3-(2-fluoro-4-(7-(6-methoxypyridin-3-yl)-4-morpholino-quinazolin-2-yl)phenyl)ureido)-N,N-dimethyl-benzamide]
< 50	< 50	CN(C)C(=O)c1ccc(NC(=O)Nc2ccc(-c3nc(N4CCOCC4)c4ncc(-c5cccnc5)cc4n3)cc2)c(F)c1 [Example 153, 3-fluoro-N,N-dimethyl-4-(3-(4-(4-morpholino-7-(pyridin-3-yl)pyrido[3,2-d]pyrimidin-2-yl)phenyl)ureido)-benzamide]
< 50	< 50	CN(C)C(=O)c1ccc(NC(=O)Nc2ccc(-c3nc(N4CCOCC4)c4ncc(-c5cncnc5)cc4n3)cc2)c(F)c1 [Example 154, 3-fluoro-N,N-dimethyl-4-(3-(4-(4-morpholino-7-(pyrimidin-5-yl)pyrido[3,2-d]pyrimidin-2-yl)phenyl)ureido)-benzamide]
